From article PMC10587737, “Dracorhodin targeting CMPK2 attenuates inflammation: A novel approach to sepsis therapy” (Clinical and Translational Medicine, 2023)

What was measured:
CMPK2 [1] = target: T1, CMPK2 (Homo sapiens, UniProt Q5EBM0); test: CMPK2 kinase activity assay (ADP-GLO); assay type: biochemical; conditions: ligand concentration 10 μM, luminescence; for inhibition at 10 µM: read-out: CMPK2 inhibition
T1 sequence (Q5EBM0 22-449): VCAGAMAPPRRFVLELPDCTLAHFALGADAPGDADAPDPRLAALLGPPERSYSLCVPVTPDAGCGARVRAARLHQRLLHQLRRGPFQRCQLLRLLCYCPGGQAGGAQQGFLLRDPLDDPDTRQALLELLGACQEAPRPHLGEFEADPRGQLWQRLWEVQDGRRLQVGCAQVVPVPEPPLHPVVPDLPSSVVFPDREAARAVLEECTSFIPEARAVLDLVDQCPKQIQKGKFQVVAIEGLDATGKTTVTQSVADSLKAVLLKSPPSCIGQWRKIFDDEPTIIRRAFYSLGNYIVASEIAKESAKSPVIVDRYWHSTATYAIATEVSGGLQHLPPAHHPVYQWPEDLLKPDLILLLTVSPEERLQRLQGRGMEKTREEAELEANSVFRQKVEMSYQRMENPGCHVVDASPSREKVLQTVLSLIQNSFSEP
Experimental: The range of concentrations used to investigate the effect of small‐molecule ligands on CMPK2 activity was 0.1–150 μM. Each data point contains three biological replicates.
CMPK2 activity was measured by the ADP‐GLO kinase assay according to the guidelines specified in the manufacturer's instructions. In the activity assay, the amount of ADP formed in the CMPK2 reaction was equal to the ATP consumption and proportional to the increase in luminescence generated in the luciferase reaction, which is the experimental principle shown in Figure 1I.

CMPK2 [2] = target: T1, CMPK2; test: Ultrafiltration-affinity mass spectrometry screening (FC, CMPK2 vs BSA); assay type: binding; design: the N‐terminus was truncated by 22 amino acids; 6xHis (C); made in house; host or cells: FreeStyle 293-F cells (pTT5 vector); conditions: ratio of MS response CMPK2 vs BSA; for FC Negative: negative ion mode; for FC Positive: positive ion mode
Experimental: The purified kinase CMPK2 was incubated with the six cocktails for 30 min at 37°C in a suitable buffer solution. In the compound cocktail, each compound concentration was 1 μM, and the concentration of the kinase CMPK2 was set at 5 μM. Each of the above incubation solutions was added to a 0.5 mL 10 kDa ultrafiltration tube (Amicon μltra‐0.5 10K Centrifugal Filter Devices, Millipore), and four experimental replicates were conducted for each CMPK2 and BSA pair. The 10 kDa ultrafiltration tube was centrifuged with the incubation solution at 13 000 × g for 20 min at 4°C. Centrifugation was stopped when the solution volume was approximately 100 μL, and then the mixture was washed five times with cold ammonium acetate (150 mM, pH 7.5). For affinity selection, 100 μL of the mixture was transferred after centrifugation and rinsed into a new eppendorf tube. […] The protein precipitate was discarded and the liquid was concentrated with a N2 stream. The residue was re‐dissolved in 50% methanol before injection. BSA samples were processed in a manner parallel to that of CMPK2 samples.
Sample measurement was detected by using an UHPLC instrument (Shimadzu) combined with a Triple TOF 5600^+ MS (SCIEX). Chromatographic separation was conducted with an Acquity UPLC BEH C18 column (1.7 μm, 2.1 × 100 mm, Waters) at a temperature maintained at 40°C and a flow rate of 0.3 mL/min, with mobile phases of water–0.1% formic acid (A) and acetonitrile (B). The linear gradient elution profile was as follows: 0−2 min, 5% B; 2−12 min, 5−30% B; 12−25 min, 30−90% B; 25−30 min, 90% B; and re‐equilibration for 5 min. Subsequently, the gradient was recovered to the initial conditions at the final 1 min. Whether it was a test sample or a quality control (QC) sample, each injection volume was 5 μL.
Briefly, the chromatographic peaks of each bound ligand were extracted using PeakView with identification criteria of precise mass measurement deviation and retention time tolerance of 5 ppm and 0.1 min, respectively. The MS response of each ligand was represented with the integrated peak area extracted by the corresponding extract ion chromatogram. The effective hits were selected on the basis of fold change (FC) value ≥ 2, p value < .05 and cyclic voltammetry (CV) ≤ 30% and were identified as candidate ligands of CMPK2. By extracting the m/z of individual standards from the acquired MS/MS spectrum, the decimal point of RT was used to distinguish the ambiguous compound peaks in the cocktails.
The experimental samples were injected into a UHPLC‐Q‐TOF‐MS system. First, total ion chromatograms (TIC) reflected the general overview of all samples (Supporting Information Figure S2A). […] Among the groups, each sample with a CV more than 30% was considered an abnormal sample and was not considered in the subsequent statistical analysis. In addition, the p value of each sample between the groups was calculated by MetaboAnalyst 5.0, and the significance of differences was determined. In the ultrafiltration‐affinity mass spectrometry profiling, we calculated FC, which is defined as the ratio of the MS response between the compound detected in the CMPK2 and BSA incubation system (Supporting Information Figure S2C,D). […] To select small‐molecule ligands with strong affinity, we determined the screening criteria to be FC ≥ 2. Affinity MS analysis generated a set of raw data, and the compounds that met the pre‐judgment criteria (FC ≥ 2, p < .05) were selected as compound hits (Supporting Information Figure S2).

Row | inhibition at 10 µM (CMPK2 [1]) [%] | FC Positive (CMPK2 [2]) | FC value (CMPK2 [2]; Figure S3A) | Structure (SMILES) | CMPK2 inhibition (CMPK2 [1]) | FC Negative (CMPK2 [2])
1 | – | – | – | CC(C)=CCCC(C)(O)[C@H]1CC[C@]2(C)[C@@H]1[C@H](O)C[C@@H]1[C@@]3(C)CC[C@H](O)C(C)(C)[C@@H]3CC[C@]12C (stereo in doubt) [compound 368, Protopanaxadiol] | more than 50% | 3.70
2 | > 50 | 4.74 | – | O=c1c(O[C@@H]2O[C@H](CO)[C@H](O)[C@H](O)[C@H]2O)c(-c2ccc(O)c(O)c2)oc2cc(O)cc(O)c12 [compound 400, Hyperoside] | – | 6.41
3 | > 50 | 3.13 | – | COc1ccc2ccc(=O)oc2c1 [compound 792, 7-methoxy coumarin] | – | –
4 | – | 1.17 | 1.9 | O=c1ccn([C@H]2C[C@H](O)[C@@H](COP(=O)(O)O)O2)c(=O)[nH]1 [dUMP, reference compound] | – | –
